{
  "source": "patent US4457919A",
  "about": "“Method of imparting immunomodulating, antiviral or antitumor activity” (Newport Pharmaceutical International, Inc., priority 1982, dated 1984)",
  "key": {"[1]": {"assay": "Formation of NPT 15392 on incubation with human peripheral blood lymphocytes (HPLC)", "format": "in vitro ADME", "details": "human, peripheral blood lymphocytes", "from_the_text": "(§1) | ^a Determined using HPLC"}, "HPBL": {"tested_on": "HPBL", "assay": "Formation of NPT 15392 on incubation with human peripheral blood lymphocytes (HPLC)", "format": "in vitro ADME", "details": "HPBL, 0 hrs.", "from_the_text": "as §1"}, "[2]": {"tested_on": "IgM antibody production to sheep red blood cells", "assay": "IgM antibody formation in SRBC-immunized Balb/c mice (immunoplaque assay, in vivo)", "details": "for Immunomodulating (in vivo) IgM formation (in words): SRBC immunized mice", "procedure": "4. Enhancement of IgM antibody formation in mice immunized with sheep red blood cells (SRBC) (in vivo).\n4. NPT 15457 and NPT 15458 and the \"active\" drug, NPT 15392, were given to Balb/c mice who had been immunized with sheep red blood cells SRBC. Antibody production to SRBC was measured. […] NPT 15392, at the levels studied, produce a 46% increase in IgM production. Higher doses of NPT 15392 will cause less of an increase or decrease over control values. […] This is to be expected since NPT 15458 produces very high levels of NPT 15392 which are most likely inhibitory to IgM formation.\n1. Mice are immunized as follows: sheep blood (sheep #23) is received weekly from Hyland Labs. It is aseptically collected in two volumes of Alseviers to one volume of blood.\n2. Five-tenths ml of the sheep blood in Alseviers is washed three times in sterile PBS in an IEC clinical centrifuge, setting #4 (2800 rpm) for 10 min. at room temperature.\n3. The pellet is resuspended in 1:10 in sterile PBS.\n4. A model Z Coulter counter is calibrated according to Coulter Instruction Manual.\n5. A […] dilution is needed for a Coulter counter cell count and is obtained by first making a 1:100 dilution in PBS and then diluting this solution 1:10 in isoton. The Coulter counter threshold is adjusted to setting #5.\n6. The cell count is determined and the stock solution is diluted to 4×10^7 cells/ml. This final suspension is used for immunization.\n7. Each mouse is immunized by i.v. injection into the lateral tail vein (warmed in a 50° C. water bath for veinous dilation) with 0.1 ml SRBC suspension; the final concentration of SRBC's is 4×10^6 per mouse.\n1. Mice are treated by i.p. injection on days 0, 1, 2 and 3. A syringe (1 cc) is fitted with a one-half inch, 26 gauge needle. The needle is introduced at a 45° angle along the right side of the linea alba. A 0.2 ml volume is given to both drug and control treated groups.\n2. Drug groups are given 0.2 ml of a desired concentration NPT 15392 solution which, for a 20 g mouse, is 5 μg/ml.\n1. Spleens are removed aseptically and placed individually in Falcon #2025 tissue culture tubes containing 3 ml MEM. The tubes are then stored on ice.\n2. Spleens are homogenized in the same tube with a teflon pestle attached to a G. K. Heller variable speed reversible motor connected with a G. K. Heller GT-21 motor controller setting #6.\n3. The homogenization time and action should be uniform from sample to sample.\n4. Samples are then filtered through a 100 mesh 40 micron stainless screen into a standard tissue culture tube. The screen is rinsed with 3 ml MEM and the cell suspension is stored on ice.\n5. A 1:1000 dilution is made for a Coulter counter cell count and is obtained by first making a 1:100 dilution in PBS followed by a 1:10 dilution in isoton.\n6. The cell count is obtained and the stock suspension is diluted to 1×10^7 cells/ml. The Coulter counter threshold is set at 10. Red cells are lysed with three drops of Zap isoton.\nAgar plates are removed from regrigerator and allowed to warm to room temperature. They are labeled in triplicate for each experimental group.\n2. Agar-filled tubes are removed from the water bath. One-tenth of the 10% SRBC's and 0.1 ml spleen cell suspension are added to each agar tube. The tubes are agitated on a Vortex mixer.\n3. The contents of the tubes are poured immediately into agar base plates and swirled until a smooth layer is formed. The plates are placed on a level surface until the agar solidifies.\n4. The plates are incubated at 37° C. in a humidified atmosphere of 5% CO2 and 95% air for 90 min.\n5. Guinea pig complement (see preparation, section D) is removed from freezer, thawed at room temperature and diluted 1:10 in PBS.\n6. Plates are removed from incubator and 1 ml of the diluted complement is added to each plate.\n7. Plates are then incubated another 30-45 minutes at 37° C. Plates are then removed from incubator and counted using oblique light.\n8. […]"}, "Vero Cells": {"tested_on": "Vero Cells", "assay": "Formation of NPT 15392 on incubation with Vero cells (HPLC)", "format": "in vitro ADME, African Green Monkey", "details": "0 hrs.", "from_the_text": "as §1"}, "[3]": {"assay": "Formation of NPT 15392 on incubation with Vero cells (HPLC)", "format": "in vitro ADME, African Green Monkey", "details": "monkey, 24 hrs.", "from_the_text": "as §1"}, "[4]": {"details": "HPBL, 24 hrs., read-out: % of NPT 15392"}, "[5]": {"details": "Expt 1, 1.8 n moles/kg × 4 i.p., all p ≤ 0.01 vs placebo"}, "[6]": {"details": "Expt 1, 1.8 n moles/kg × 4 i.p., control 28 ± 2"}, "[7]": {"details": "Expt 2, .18 n moles/kg × 4 i.p., NPT 15392 and NPT 15458 p ≤ 0.01 vs placebo"}, "[8]": {"details": "Expt 2, .18 n moles/kg × 4 i.p., control 46 ± 2"}, "[9]": {"details": "Table 11 summary, read-out: Convertible to NPT 15392, Biological: HPBL"}},
  "note": "“Also recorded” adds a separate entry of the source.",
  "data": [
    {"compound": "CCCCCC[C@H]([C@H](C)O)n1cnc2c(=O)[nH]cnc21", "note": "(relative stereo) [NPT 15392, erythro-9-(2-hydroxy-3-nonyl)-hypoxanthine, reference compound]", "values": [
      {"measurement": "metabolised at 24 h", "setting": "[1]; [4]", "value": 100, "unit": "%"},
      {"measurement": "% of NPT 15392", "setting": "HPBL", "value": 100, "unit": "%"},
      {"measurement": "# IgM Plaques % of Control", "setting": "[2]; [5]", "value": 146, "unit": "%"},
      {"measurement": "# IgM Plaques (mean ± S.E.)", "setting": "[2]; [6]", "value": "41 ± 4"},
      {"measurement": "# IgM Plaques % of Control", "setting": "[2]; [7]", "value": 147, "unit": "%"},
      {"measurement": "# IgM Plaques (mean ± S.E.)", "setting": "[2]; [8]", "value": "68 ± 2"},
      {"measurement": "Immunomodulating (in vivo) IgM formation (in words)", "setting": "[2]", "value": "very effective in modulating the production of IgM antibodies and Yes"},
      {"measurement": "Immunomodulating (in vivo) SRPC-IgM, change", "setting": "[2]; Table 11 summary", "value": "+46%"},
      {"measurement": "Increase in IgM production", "setting": "[2]; at the levels studied", "value": 46, "unit": "%"},
      {"measurement": "% of NPT 15392", "setting": "Vero Cells", "value": 100, "unit": "%"},
      {"measurement": "metabolised at 24 h", "setting": "[3]", "value": 100, "unit": "%"}
    ]},
    {"compound": "CCCCCC[C@H]([C@H](C)OC(=O)CCC(=O)O)n1cnc2c(=O)[nH]cnc21", "note": "(relative stereo) [NPT 15457, Erythro-9-(2-Succinoxy-3-Nonyl) Hypoxanthine]", "values": [
      {"measurement": "metabolised at 24 h", "setting": "[1]; [4]", "value": 18.2, "unit": "%"},
      {"measurement": "metabolised at 24 h", "setting": "[1]; [9]", "value": 18, "unit": "%"},
      {"measurement": "% of NPT 15392", "setting": "HPBL", "value": 0, "unit": "%"},
      {"measurement": "# IgM Plaques % of Control", "setting": "[2]; [5]", "value": 68, "unit": "%"},
      {"measurement": "# IgM Plaques (mean ± S.E.)", "setting": "[2]; [6]", "value": "19 ± 3"},
      {"measurement": "# IgM Plaques % of Control", "setting": "[2]; [7]", "value": 102, "unit": "%"},
      {"measurement": "# IgM Plaques (mean ± S.E.)", "setting": "[2]; [8]", "value": "47 ± 3"},
      {"measurement": "Immunomodulating (in vivo) IgM formation (in words)", "setting": "[2]", "value": "less than that of NPT 15458; also recorded: Moderate"},
      {"measurement": "Immunomodulating (in vivo) SRPC-IgM, range", "setting": "[2]; Table 11 summary, unit not given", "value": "0-60"},
      {"measurement": "% of NPT 15392", "setting": "Vero Cells", "value": 0, "unit": "%"},
      {"measurement": "metabolised at 24 h", "setting": "[3]", "value": 0, "unit": "%"}
    ]},
    {"compound": "CCCCCC[C@H]([C@H](C)OC(C)=O)n1cnc2c(=O)[nH]cnc21", "note": "(relative stereo) [NPT 15458, erythro-9-(2-Acetoxy-3-Nonyl)-Hypoxanthine]", "values": [
      {"measurement": "metabolised at 24 h", "setting": "[1]; [4]", "value": 100, "unit": "%"},
      {"measurement": "metabolised at 24 h", "setting": "[1]; [9]", "value": 100, "unit": "%"},
      {"measurement": "% of NPT 15392", "setting": "HPBL", "value": 0, "unit": "%"},
      {"measurement": "# IgM Plaques % of Control", "setting": "[2]; [5]", "value": 28.5, "unit": "%"},
      {"measurement": "# IgM Plaques (mean ± S.E.)", "setting": "[2]; [6]", "value": "8 ± 1"},
      {"measurement": "# IgM Plaques % of Control", "setting": "[2]; [7]", "value": 23.9, "unit": "%"},
      {"measurement": "# IgM Plaques (mean ± S.E.)", "setting": "[2]; [8]", "value": "11 ± 1"},
      {"measurement": "Immunomodulating (in vivo) IgM formation (in words)", "setting": "[2]", "value": "produces an inhibition of IgM formation and very effective in modulating the production of IgM antibodies and Yes"},
      {"measurement": "Immunomodulating (in vivo) SRPC-IgM, change", "setting": "[2]; Table 11 summary", "value": -72, "unit": "%"},
      {"measurement": "% of NPT 15392", "setting": "Vero Cells", "value": 0, "unit": "%"},
      {"measurement": "metabolised at 24 h", "setting": "[3]", "value": 50, "unit": "%"}
    ]}
  ]
}
